Assay results from US20080227688A1, “Inhibition of viral replication” (priority 2007, published 2008).
“Also recorded” adds a separate entry of the source. *1 amine or outer side, *2 acyl side, *3 side chain or, on linkers, in order; H or OH if unused. Where a SMILES comes first, the peptide text is derived from it. [ ]: non-standard residue; d: D form. The star is where a group is joined. hPhe = N[CH](CCc1ccccc1)C(=O)O; Morpholide = C1CN(*)CCO1; CO = O=C([*:1])[*:2]; CH2F = FC*

Key:
reovirus [1] = conditions: pharmacological inhibition of cellular cathepsin B; cited from earlier work
reovirus [2] = type: cell-based, Dearing strain of reovirus serotype 3
myxoma virus = type: cell-based, myxoma virus (strain Lausanne)
cellular cathepsin B = cellular cathepsin B (Homo sapiens, UniProt P07858); conditions: cited from earlier work
influenza A virus = assay: Influenza A infection of Mv1Lu cells, FACS; type: cell-based, Flu type A (A/New Cale/H1N1); conditions: 20 μM, 4 days
reovirus [3] = assay: HT1080 tumor xenograft in SCID mice with intratumoral reovirus, immunohistochemistry of tumor and heart; type: in vivo; conditions: 0.02 mg intratumorally, 16 days post-viral injection
Experimental: FIGS. 4A-4B: Z-FA-FMK blocks reovirus infection in vivo. (FIG. 4A) HT1080 cells were injected subcutaneously into hind flanks of SCID mice. After palpable tumors were established (11 days after implantation), tumors were injected with Live reovirus (L Reo; n=5 tumors), UV-inactivated reovirus (D Reo; n=5 tumors), Z-FA-FMK (FA; n=5 tumors) and Live reovius suspended in Z-FA-FMK solution (Reo+FA; n=5 tumors). Tumor growth was measured externally using calipers. Z-FA-FMK was dissolved in DMSO and administered as 0.02 mg suspended in PBS intratumorally per mouse everyday up to 7 days post viral injection, and every 2 days until completion of the experiment. […] Paraffin sections of tumors and heart tissues were analyzed by indirect immunohistochemical staining using reovirus antiserum as described in the Examples. […]
SCID mice (6-8 weeks, Charles River, Wilmington, Mass.) received a single subcutaneous implantation of 5×10^6 cells of HT1080 cells suspended in PBS. […] Tumor growth was measured externally using calipers and the volume was determined by the equation V=(L×W^2)×0.5, where L is the largest dimension and W is the largest dimension perpendicular to L. Z-FA-FMK was dissolved in DMSO and administered as 0.02 mg suspended in PBS intratumorally per mouse every day up to 7 days post viral injection, and every 2 days until completion of the experiment. […]

reovirus [4] = assay: Electron microscopy of reovirus-infected HT1080 cells; type: cell-based, Dearing strain of reovirus serotype 3; conditions: HT1080, MOI of 40, 20 μM, 48 hr post-infection
Experimental: FIGS. 2A-2B: Electron microscopic analysis of reovirus infected HT1080 cells in the presence or absence of Z-FA-FMK treatment. HT1080 cells grown to 50-70% confluency were infected with reovirus at MOI of 40, then either Z-FA-FMK (20 μM) or control medium was added in the culture medium. After 48 hr culture, cells were prepared for electron microscopic examination as described in the Examples. (FIG. 2A) HT1080 infected with reovirus in the absence of Z-FA-FMK showing scattered virions and viral inclusions (factory) (arrows) in the perinuclear region. Scale represents 500 nm×10,000 (above). […] Scale represents 100 nm×80,000 (FIG. 2B) HT1080 infected with reovirus in the presence of Z-FA-FMK showing scattered reovirus virion particles (arrows) but no reoviral inclusions in the perinuclear region. Scale represents 500 nm×10,000 (above). Scattered virions with empty shell (arrows) are present in perinuclear region (bottom). Scale represents 200 nm×40,000.
EM preparation was performed by the University of Calgary Microscopy & Imaging Facility. Cells grown on glass slides were rinsed briefly with PBS (phosphate buffered saline) and fixed with 4% EM grade glutaraldehyde in 0.1 M cacodylate buffer (pH 7.4) for 1 hr at room temperature (RT). After washing three times with the same buffer, cells were post-fixed in 1% osmium tetroxide buffered with 0.1 M cacodylate for 1 hr at RT. […]

HIV type 1 virus = type: cell-based, HIV type 1 strain (NL4-3)

CCCNC(=O)[C@H]1O[C@@H]1C(=O)N[C@H](C(=O)N1CCC[C@H]1C(=O)OC)[C@@H](C)CC [CA-074Me]
reovirus viral yield (reovirus [1]): decreased viral yields yet not a complete blockage of viral yield

O=C(CF)C(CCc1ccccc1)NC(=O)C(Cc1ccccc1)NC(=O)N1CCOCC1 (stereo not drawn) [Mu-FhF-FMK, N-Morpholineurea-phenylalanyl-homophenylalanyl-fluoromethylketone] ({Morpholide-CO}-Phe-[hPhe]-CH2F; configuration not given here)
reovirus-mediated cytopathogenicity (reovirus [2]): effectively inhibited reovirus-mediated cytopathogenicity

C[C@H](NC(=O)[C@H](Cc1ccccc1)NC(=O)OCc1ccccc1)C(=O)CF [Z-FA-FMK, N-benzyloxycarbonyl-Phe-Ala-fluoromethylketone]
GFP expression level of BGMK monolayers (myxoma virus): significantly suppressed
myxoma infectivity (GFP expressing cells) (myxoma virus): inhibitory effects were not detectable
myxoma virus foci development (myxoma virus): significantly suppressed as Z-FA-FMK dosages were increased; also recorded: the inhibition of foci development is more readily detectable
inactivation of cathepsin B (cellular cathepsin B): potent inactivator of cellular cathepsin B
viral replication activity of influenza A (influenza A virus): did not affect viral replication activity
reovirus replication activity in heart tissue (immunohistochemistry) (reovirus [3]): effectively blocked
reovirus replication activity in tumor tissue (immunohistochemistry) (reovirus [3]): effectively blocked
viral factory formation (EM) (reovirus [4]): did not form these viral factories
virion morphology (EM) (reovirus [4]): all of the scattered viral particles contained empty capsids
reoviral replication potential by FACS (reoviral antigen) (reovirus [2]): effectively suppressed reoviral replication potential in a dose-dependent manner
reovirus replication (cytopathic morphology, viral antigens by western blotting and FACS) (reovirus [2]): completely blocked reovirus replication
viral replication activity of HIV-1 (HIV type 1 virus): did not affect viral replication activity

Z-Val-Ala-Asp-fluoromethylketone [Z-VAD-FMK]
reovirus-mediated cytopathogenicity (reovirus [2]): effectively inhibited reovirus-mediated cytopathogenicity
